One assay has as its system Plasmodium falciparum. Briefly: Calibr Malaria Delayed Death Assay SOP. The class given is functional, organism-based. To be noted: for IC50: Plasmodium falciparum.
Assay [1] can be described thus: microbe, parasite or virus in culture. The settings on record: Mycobacterium tuberculosis, 96 h, read-out: pIC50 (converted).
Assay [2] in a line: microbe, parasite or virus in culture. To be noted: Mycobacterium tuberculosis, 72 h, read-out: pIC50 (converted).

The pIC50 is the IC50 on a negative log10 scale, so that one unit is a factor of ten. A high value points to a small IC50. For `COc1cc(CNCC(O)c2ccc(F)c(F)c2)cc2c1OCO2` (stereo not drawn), in the assay with Plasmodium falciparum, the pIC50 is 6.45 and the IC50 is 0.46 µM.
Consider `CC[C@H]1CN2CC[C@H]1C[C@@H]2CNCc1ccc(OC(F)(F)F)cc1`, for which the IC50 is 19.8 µM in assay [1], 31.9 µM in assay [2] and 0.806 µM in the assay on Plasmodium falciparum. The same compound came in with a pIC50 in the assay on Plasmodium falciparum of 6.073.
Consider `CC[C@H]1CN2CC[C@H]1C[C@@H]2CNC(=O)Nc1cc(OC)cc(OC)c1`, for which the figures for the IC50 (in assay [1]; in assay [2]; in the assay with Plasmodium falciparum) were > 50.1 µM, > 50.1 µM and 0.762 µM, respectively. The same compound yielded a pIC50 in the assay on Plasmodium falciparum of 6.272.
Take `c1cncc(-c2ccc3c(c2)CCC32CCNCC2)c1`: the IC50 in assay [1] was 40.9 µM; in assay [2] it was 46.2 µM; with Plasmodium falciparum, 1.28 µM. For the same compound, in the assay with Plasmodium falciparum, the negative logarithm of the IC50 (pIC50) is listed as 5.939.
The like results for `Oc1ccc(Cl)cc1CNCc1cccc(C(F)(F)F)c1` were, in that order, 29.1 µM, 43.2 µM, 0.653 µM and 6.177.
The like results for `CCOc1ccc(CN2CCCC(c3cc4ncccc4[nH]3)C2)cc1` (stereo not drawn) were, in that order, 24.8 µM, 33.6 µM, 0.842 µM and 6.15.
The corresponding values for `Cc1cc(Cc2cccc(C(F)(F)F)c2)cc(C2CCCNC2)n1` (stereo not drawn) are 37.9 µM, 25.3 µM, 1.12 µM and 6.047.
With `O=C(CCN1CCCC1c1cccc2c1OCCO2)N1CCCCC1` (stereo not drawn), the figures for the IC50 (in assay [1]; in assay [2]; in the assay with Plasmodium falciparum) were > 50.1 µM, 25.2 µM and 0.845 µM, respectively. This compound also returned a pIC50 in the assay on Plasmodium falciparum of 5.987.
`Cc1ccc(CNCc2cccc3cccnc23)c(OC2CCOC2)c1` (stereo not drawn): the values for the IC50 (in assay [1]; in assay [2]; in the assay on Plasmodium falciparum) were > 50.1 µM, > 50.1 µM and 0.619 µM, respectively. In the assay with Plasmodium falciparum, this compound yielded a pIC50 of 6.31.
For the compound `Cc1cnn(CCCNCc2csc(COc3ccccc3)n2)c1`, the figures for the IC50 (in assay [1]; in assay [2]; in the assay with Plasmodium falciparum) were 11.4 µM, 27.8 µM and 0.828 µM, respectively. The same compound came in with a pIC50 in the assay on Plasmodium falciparum of 6.021.
The like results for `CS(=O)(=O)CCCNC1(c2cccc(Cl)c2)CCCC1` were, in that order, > 50.1 µM, > 50.1 µM, 0.87 µM and 6.268.
The like results for `CC(Nc1nc(-c2ccccc2)nc2c1CCNCC2)c1cccnc1` (stereo not drawn) were, in that order, 28 µM, 27.6 µM, 1.46 µM and 5.884.
The corresponding values for `CC1CCCCN1C(=O)c1coc(COc2cccc3cnccc23)n1` (stereo not drawn) are 24.4 µM, 44 µM, 0.616 µM and 6.214.
As for `OC1(CN2CCC(Oc3cccc(C(F)(F)F)c3)CC2)CCNC1` (stereo not drawn), the IC50 in assay [2] is > 50.1 µM; with Plasmodium falciparum, 0.69 µM. In the assay on Plasmodium falciparum, this compound gave a pIC50 of 6.152.
As to `c1ccc(-c2nc3c(c(NCc4n[nH]c5c4CCC5)n2)CCNC3)cc1`, the IC50 in assay [1] was 46.1 µM; in assay [2], 25.7 µM; in the assay with Plasmodium falciparum, 0.902 µM. This compound also had a pIC50 with Plasmodium falciparum of 6.219.
The corresponding values for `COc1ccc2[nH]c(CNc3cc(C4CCNCC4)nc(C)n3)cc2c1` are 12.4 µM, 14.3 µM, 1.83 µM and 5.758.
Turning to `CCc1[nH]c2c(CNc3cc(C)nc(NC)n3)cc(C)cc2c1C`, the IC50 in assay [1] is 40.3 µM; in assay [2] it was 35.7 µM; in the assay with Plasmodium falciparum, 0.75 µM. Further, the pIC50 in the assay on Plasmodium falciparum came to 6.096.
As for `CCc1cnc(N)nc1NC(C)c1ccc(C)c(C)c1` (stereo not drawn), the IC50 is 44.1 µM in assay [1], 23.8 µM in assay [2] and 0.893 µM with Plasmodium falciparum. The pIC50 with Plasmodium falciparum was 6.042.
The like results for `O=C(CCN1CCCC(CO)(CC2CC2)C1)NCc1cccc(Cl)c1` (stereo not drawn) were, in that order, > 50.1 µM, > 50.1 µM, 1.32 µM and 5.764.
The corresponding values for `CCCn1ccnc1CN1CCCC1c1ccccn1` (stereo not drawn) are > 50.1 µM, > 50.1 µM, 0.395 µM and 6.456.
In the assay with Plasmodium falciparum, `COc1ccnc(CN2CCCC(CCc3ccccc3)C2)c1OC` (stereo not drawn) had a pIC50 of 5.985 and an IC50 of 1.03 µM.
As for `Cc1nc(-c2cc(Cl)cc3c2OC(CN)C3)c[nH]1` (stereo not drawn), the results for the IC50 (in assay [1]; in assay [2]; in the assay with Plasmodium falciparum) were > 50.1 µM, 13.6 µM and 0.655 µM, respectively. The compound further yielded a pIC50 in the assay on Plasmodium falciparum of 6.207.
In the assay on Plasmodium falciparum, `Cc1ccccc1CN(CCN(C)C)Cc1ccc(S(C)(=O)=O)cc1` gave a pIC50 of 5.997 and an IC50 of 0.89 µM.
The like results for `Cc1nccn1CCCN1CCCC(c2ccccc2)C1` (stereo not drawn) were, in that order, 6.639 and 0.234 µM.
On to `OCc1csc(N2CCCC(COc3cccc(F)c3)C2)n1` (stereo not drawn), for which, in the assay with Plasmodium falciparum, the pIC50 amounted to 6.326 and the IC50 was 0.363 µM.
The like results for `CN(CCCO)Cc1cc(Cl)ccc1OCC(O)CN1CCCCCC1` (stereo not drawn) were, in that order, 6.2 and 0.738 µM.
The corresponding values for `CN1CCN(Cc2ccccc2Oc2nccc3occc23)CC1` are 6.2 and 0.593 µM.
Regarding `CCOc1cccc(CN2CCCC(Nc3ccc(F)cc3)C2)c1O` (stereo not drawn), in assay [1], the IC50 was 46.1 µM. In the assay with Plasmodium falciparum, this compound gave a pIC50 of 6.217 and an IC50 of 0.577 µM.
As for `Cc1cc(CN(C)c2nc(-c3ccccn3)nc3c2CCNCC3)n[nH]1`, in the assay on Plasmodium falciparum, the pIC50 was 5.981 and the IC50 is 1.08 µM.
The like results for `Cc1cc2c(cc1CN1CCCCC1CCn1ccnc1C)OCO2` (stereo not drawn) were, in that order, 6.025 and 1.02 µM.
In the case of `CO[C@H]1CN(C(C)C)C[C@@H]1NC(=O)c1cc(-c2ccccc2O)n[nH]1`, in the assay with Plasmodium falciparum, the pIC50 is recorded as 6.125 and the IC50 is 0.891 µM.
The corresponding values for `CN1CCCC(c2cccc(Cc3ccccc3Cl)n2)C1` (stereo not drawn) are 6.022 and 1.02 µM.
The like results for `CCNC(=O)N(C)C1CCN(Cc2ncc(C)c(OC)c2C)CC1` were, in that order, 5.844 and 1.59 µM.
The corresponding values for `c1ccc(CCCN2CCN(c3ccc4nncn4n3)CC2)cc1` are 5.983 and 1.41 µM.
With `CCN1CCCC(CNC(=O)C2(c3cc(C)cc(C)c3)CCC2)C1` (stereo not drawn), in the assay with Plasmodium falciparum, the pIC50 was 6.008 and the IC50 was 1.51 µM.
The like results for `COc1cc(CNCC(O)c2ccc(F)cc2F)cc2c1OCO2` (stereo not drawn) were, in that order, 6.074 and 0.972 µM.
The corresponding values for `O=C(NCCN1CCCC1)C1(c2ccc(Cl)cc2)CCOCC1` are 6.003 and 0.714 µM.
The corresponding values for `O=C(Nc1ccc(OC2CCCC2)cc1)C1CCCN1c1nccs1` (stereo not drawn) are 7.074 and 0.0793 µM.
In the case of `OCCN1CCC(CNCc2ccccc2OC(F)(F)F)CC1`, in the assay on Plasmodium falciparum, the pIC50 is reported as 6.066 and the IC50 was 0.77 µM.
The corresponding values for `CN1CCCC1CNC(=O)CCCOc1cccc(Br)c1` (stereo not drawn) are 5.833 and 1.17 µM.
The like results for `CCN(CC)C(CNC(=O)c1c(C)noc1C(C)C)c1ccsc1` (stereo not drawn) were, in that order, 6.097 and 1.36 µM.
Take `Cc1cc(C)n(C2CN(CC(O)c3cc(F)ccc3F)C2)n1` (stereo not drawn): in the assay on Plasmodium falciparum, the pIC50 came to 6.757 and the IC50 is 0.223 µM.
The like results for `Cc1cc(C)n(C2CN(CC(O)c3ccc(C(F)(F)F)cc3)C2)n1` (stereo not drawn) were, in that order, 5.98 and 1.03 µM.
The like results for `c1cnnc(N2CCCC2CNc2ncnc3sccc23)c1` (stereo not drawn) were, in that order, 5.797 and 1.26 µM.
The corresponding values for `COc1cc(C(=O)NCc2ccc3c(c2)CCCN3C)cc(OC)c1Br` are 6.846 and 0.251 µM.
In the assay with Plasmodium falciparum, `CC(O)CN1CCC(CNCc2cccc(C(F)(F)F)c2)CC1` (stereo not drawn) gave a pIC50 of 6.332 and an IC50 of 0.751 µM.
In the assay on Plasmodium falciparum, `CC(O)CN1CCC(CNCc2cccc(Cl)c2)CC1` (stereo not drawn) showed a pIC50 of 6.249 and an IC50 of 0.599 µM.
Regarding `CN(Cc1ncc(C(C)(C)C)o1)CC1CCCN1c1cccnn1` (stereo not drawn), in the assay with Plasmodium falciparum, the negative-log IC50 (pIC50) was 5.852 and the IC50 was 1.62 µM.
The corresponding values for `COc1c(C)cnc(CN2CCC(N(C)C(C)C(N)=O)CC2)c1C` (stereo not drawn) are 6.018 and 0.876 µM.
The corresponding values for `COc1ccc(NC(=O)c2ccc(-n3ncc(C#N)c3N)cc2)cn1` are 5.946 and 1.11 µM.
The like results for `CCc1ncc2c(n1)CN(CC(=O)Nc1ccc(Cl)cn1)CC2` were, in that order, 5.772 and 1.24 µM.
`CC(O)CN1CCC(CNCc2cccc(Br)c2)CC1` (stereo not drawn): in the assay on Plasmodium falciparum, the pIC50 is listed as 6.286 and the IC50 was 0.528 µM.
The like results for `Cl.OC(CNCc1ccccc1C(F)(F)F)c1ccccc1` (stereo not drawn) were, in that order, 6.179 and 0.709 µM.
The like results for `COc1cc(CNCC(O)c2cccc(F)c2)cc2c1OCO2.Cl` (stereo not drawn) were, in that order, 6.133 and 0.729 µM.
On to `CC(C)c1nn(C)c(Cl)c1CNCC(O)c1cccc(F)c1.Cl` (stereo not drawn), for which, in the assay with Plasmodium falciparum, the pIC50 stood at 6.252 and the IC50 was 0.392 µM.
On to `Cl.Cl.Clc1cccc(C[C@@H]2NCCC[C@@H]2Nc2ccccc2)c1`, for which the IC50 in assay [1] was 16 µM; in assay [2], 12 µM; in the assay on Plasmodium falciparum it was 0.789 µM. For the same compound, the pIC50 with Plasmodium falciparum is listed as 6.034.
As to `Cn1ccnc1CN(Cc1ccccn1)Cc1ccccc1Cl.O=C(O)CC(O)(CC(=O)O)C(=O)O`, the IC50 in assay [2] was 45.5 µM. Also, in the assay with Plasmodium falciparum, the pIC50 came out at 6.114 and the IC50 is 0.725 µM.
In the assay with Plasmodium falciparum, `CC1(C)CC(N(Cc2ccccc2)Cc2cccnc2)CC(C)(C)N1.O=C(O)CC(O)(CC(=O)O)C(=O)O` gave a pIC50 of 5.927 and an IC50 of 0.602 µM.
In the assay with Plasmodium falciparum, `Cc1ccc(CN(Cc2cccnc2)C2CC(C)(C)NC(C)(C)C2)s1.O=C(O)CC(O)(CC(=O)O)C(=O)O` had a pIC50 of 6.05 and an IC50 of 0.727 µM.
The corresponding values for `Cc1ccc(CN(Cc2ccccn2)C2CC(C)(C)NC(C)(C)C2)s1.O=C(O)CC(O)(CC(=O)O)C(=O)O` are 6.418 and 0.432 µM.

The values are drawn from ChEMBL document CHEMBL3988442, “University of Dundee, Small-Polar-MMV Screening Library” (2021).
